# Experimental data as given in patent publication US7332623B2 (Kaohsiung Medical University, priority 2003, dated 2008).
# Key:
# [1] = system: NCI (NCI-H661): human lung large cell carcinoma; test: In vitro anticancer assay (cytotoxicity), solid tumor cells
# [2] = system: KB cell; details: Table 1; cited from earlier work
# [3] = system: DLD (DLD-1): human colon adenocarcinoma; test: In vitro anticancer assay (cytotoxicity), solid tumor cells
# [4] = system: Hep2,2,15; details: Hep2,2,15, Table 1; cited from earlier work
smiles,measurement,setting,value
"N#Cc1ccccc1C#C/C=C\C#CCCCOC1CCCCO1 (stereo not shown) [Compound 2, 2-(9-(Tetrahydropyranyloxy)-3(Z)-nonen-1,5-diynyl)-benzonitrile]",IC50 Values of Cytotoxicities,[1],— (“—” means IC50 > 20 μg/ml)
same,IC50,[2],< 0.01 µM
same,IC50 Values of Cytotoxicities,[3],— (“—” means IC50 > 20 μg/ml)
same,IC50,[4],> 10 µM
